Read-outs that look alike come from different tables or passages of the source.

Data set [1] deals with luteinizing hormone (LH) in circulating blood. Description: Effect of GnRH analogs on LH levels in blood of rats (RIA). It counts as in vivo, rat. Further details: LH 180 min: unit not given here. The method, then: The experiment was carried out with 55 female Wistar 8-week old rates, equally distributed into one of the eleven test groups as detailed in the following Table 3:
The compounds were administered either orally (PO) or intraperitoneally (IP) in a molar concentration of 0.4 nmol/rat (equivalent to 0.5 μg/rat of D-Lys^6-GnRH and to 0.6 μg/rat of Fms- or Fmoc-D-Lys^6-GnRH), or of 40 nmol/rat (equivalent in 50 μg/rat of D-Lys^6-GnRH and to 60 μg/rat of Fms- or Fmoc-D-Lys^6-GnRH), in 0.5 ml PBS. Ninety and 180 minutes after administration of the appropriate treatment, blood samples were collected (1 ml), the serum was separated, and the detection of LH levels was carried out by radioimmunoassay (RIA) as previously described (Rahimipour, S., et Al. J. Med. Chem. 2001, 44, 3645-3652).

In data set [2] the test system is Candida albicans. The conditions noted are these: 20 IU; Agar-RPMI plates confluent with Candida albicans, 48 hr at 30° C.; cited from earlier work.
The conditions of data set [3]: rats; Dox 10 μg/g, Fms-Dox 15 μg/g I.P. The method, then:
(§1) The experiment was carried out with a single mice or rat per compound (per metabolic cage) and it was repeated 7 times with rats and twice with mice using the protocol below. The fluorescent feature of doxorubicin enables the observation of its presence in the urine following different modes of administration.
Urine was collected several times after administration and the fluorescence emission was measured by a fluorometer. The urine collected from the untreated groups was used as a blank.
Urine was collected at 1.25, 2.5, 4 and 6 hours after administration and fluorescence intensity was measured in a fluorometer (SPECTRAmax and GEMINI of Molecular Devices Sunnyvale Fluorometer, CA, USA). Since doxorubicin is a fluorescent material, when it absorbs light energy at a wavelength of 488 nm (excitation), it undergoes an electronic state change and instantaneously emits light at 595 nm (emission). The Relative Fluorescence Units (RFU) shown in FIG. 1 indicate the peaks of light emitted at 595 nm resulting from the absorption of Dox at 488 nm.

The test system of data set [4] is F10.9 melanoma cell line. Description: Inhibition of proliferation of cancer cells in vitro, crystal violet staining. In kind it is cell-based. The conditions noted are these: F10.9 melanoma cells, 96 hours, crystal violet staining (FIG. 2); read-out: IC50 (the concentration at which cell growth is inhibited by 50%). The method, then: (§2) The efficacy of native Dox and FMS-Dox on the inhibition of proliferation of cancer cells was tested in vitro with F10.9 melanoma cell line. On day (−1) cells, were seeded in a 24-well plate (5×10^3 cells/ml/well). On day (0), cells were incubated with Dox and FMS-Dox at logarithmic dilutions from 100 μM to 0.001 μM. Survival of cells at 96 hours was determined, using the crystal violet staining method. Optical density (OD) was measured at 620 nm in an ELISA reader. The OD reading was correlated to % viable cells. When the cells were untreated the absorbance was at a maximum. IC50 (the concentration at which cell growth is inhibited by 50%) was determined. The results in FIG. 2 show IC50 values of 0.03 μM and 0.09 μM for native Dox and FMS-Dox, respectively. […] The was confirmed by HPLC analysis whereby the compound found in the growing cell medium after 96 hr corresponded to native doxorubicin.

How the values of data set [5] were obtained: as §1
The experiments were repeated with mice.

A short description of data set [6]: HPLC analysis of growing cell medium (cleavage of Fms-Dox). In kind it is in vitro ADME. The conditions noted are these: growing cell medium after 96 hr. On the procedure:
as §2

Data set [7] relates to Escherichia coli (E. coli strain N-4156-W.T). In words: Antibacterial potency: E. coli replication, absorbance at 600 nm. It counts as cell-based. The settings on record: 37° C., L.B. medium, O.D. 600 nm. The method, then:
A suspension of Escherichia coli (E. coli strain N-4156-W.T, 1% V/V in L.B. medium) is divided into plastic tubes (0.5 ml per tube) and incubated in a shaking water bath at 37° C., in either the absence or the presence of increasing concentrations of gentamicin (0.02-50 μM) and increasing concentrations of (Fms)3-gentamicin (0.02-50 μM). E. coli replication is evaluated by measuring the absorbance at 600 nm. Incubation is terminated when O.D600 nm in the tubes containing no gentamicin reaches a value of 0.6±0.1. Under our assay conditions, native gentamicin inhibited half-maximally E. coli replication at a concentration of 0.22±0.02 μM (0.1 μg/ml).

[8] abbreviates: 0.4 nmol/rat (0.5 or 0.6 μg/rat) IP.
Setting [9] is: 0.4 nmol/rat (0.5 or 0.6 μg/rat) PO.
Where [10] appears, read: 40 nmol/rat (50 or 60 μg/rat) PO.

On to “5-oxo-Pro-His-Trp-Ser-Tyr-(Fmoc)D-Lys-Leu-Arg-Pro-Gly-NH2 [Fmoc-D-Lys^6-GnRH]”, for which the figures for the “LH 90 min” value in data set [1] (setting [8]), in data set [1] (setting [9]) and in data set [1] (setting [10]) were 50 ng/mL, 0 ng/mL and 0 ng/mL, respectively. The “LH 180 min” value in data set [1] (setting [8]) was determined as 17; in data set [1] (setting [9]), 0; in data set [1] (setting [10]), 0. Besides, the “activity when administered IP” value in data set [1] was “active”.
With “5-oxo-Pro-His-Trp-Ser-Tyr-(Fms)D-Lys-Leu-Arg-Pro-Gly-NH2 [Fms-D-Lys^6-GnRH]”, the “LH 90 min” value in data set [1] (setting [8]) worked out at 80 ng/mL; in data set [1] (setting [9]), 0.4 ng/mL; in data set [1] (setting [10]) it was 80 ng/mL. In addition, the “LH 180 min” value amounted to 25 in data set [1] (setting [8]), 0 in data set [1] (setting [9]) and 35 in data set [1] (setting [10]). Further, the “activity when administered IP” value in data set [1] was “active”. Besides, the “effect of oral administration on LH levels in the blood circulation” value in data set [1] (oral, 90 and 180 min after administration) is “elevation of the LH levels”.
In the case of `C[C@@H]1[C@H](O)[C@@H](C)/C=C/C=C/C=C/C=C/C=C/C=C/C=C/[C@H](O[C@@H]2O[C@H](C)[C@@H](O)[C@H](N)[C@@H]2O)C[C@@H]2O[C@](O)(C[C@@H](O)C[C@@H](O)[C@H](O)CC[C@@H](O)C[C@@H](O)CC(=O)O[C@H]1C)C[C@H](O)[C@H]2C(=O)O` [native Amphotericin B, Amphotericin B], the clear zone diameter in data set [2] is 1.5 cm.
On to `COc1cccc2c1C(=O)c1c(O)c3c(c(O)c1C2=O)C[C@@](O)(C(=O)CO)C[C@@H]3O[C@H]1C[C@H](N)[C@H](O)[C@H](C)O1` [native Dox, Doxorubicin], for which the “absorption following I.P. administration (urine fluorescence)” value in data set [3] is listed as “absorbed”; in data set [5] (mice, I.P.), “absorbed”. Further, the IC50 in data set [4] is 0.03 µM. Besides, the “oral absorption (urine fluorescence)” value in data set [5] (mouse, in vivo, po) was “orally nonabsorbed”.
With Fms-doxorubicin, the “cleavage in the cell medium (HPLC analysis)” value in data set [6] was “full recovery of the native doxorubicin”. In addition, the IC50 in data set [4] came out at 0.09 µM.
As for gentamicin [native gentamicin], the “concentration inhibiting half-maximally E. coli replication” value in data set [7] turned out to be 0.1 µg/mL. Besides, in data set [7] (read-out: concentration inhibiting half-maximally E. coli replication), the IC50 was found to be 0.22 ± 0.02 µM.

Source of the values: US20050004000A1, “Oral absorbed drugs” (priority 2001, published 2005).
